ChEMBL document CHEMBL1201862, “PubChem BioAssay data set” (2004)
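The compound was tested at five concentrations on cells cultured in 96-well plates, with a 48-hour exposure period. At the GI50, growth is halved.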 The source made the active and inactive calls. Cut-off read from the data, not from the text of the source: active = GI50 up to about 1.1 µM and inactive = higher. Where a SMILES comes first, the peptide text is derived from it. The star is where a group is joined. Boc = CC(C)(C)OC(=O)*; tBu = CC(C)(C)*

Tests used:
Assay in all cases: NCI-60 cell line screen, 48 h
MDA-N = system: MDA-N
HOP-18 = system: HOP-18
XF498 = system: XF498
DMS-114 = system: DMS-114
M19-MEL = system: M19-MEL
SNB-78 = system: SNB-78
DMS-273 = system: DMS-273
LXFL 529 = system: LXFL 529

`CC(OC(C)(C)C)C(NC(=O)C(N)CCCCNC(=O)OC(C)(C)C)C(=O)NC(Cc1ccccc1)C(=O)O` (stereo unspecified) (H-Lys(Boc)-Thr(tBu)-Phe-OH; configuration not given here) was tested, and the GI50 (MDA-N) was > 100 µM (inactive).
With `O=C(O)c1cc(=O)c2c(OCC(O)COc3cccc4oc(C(=O)O)cc(=O)c34)cccc2o1` the GI50 (MDA-N) was > 71.8 µM (inactive).
For `O=C1OC(c2ccccc2)=N/C1=C\c1ccc2ccccc2c1`, the GI50 (HOP-18) was > 100 µM (inactive), the GI50 (XF498) was > 100 µM (inactive) and the GI50 (DMS-114) was > 100 µM (inactive). The GI50 (M19-MEL) was > 100 µM (inactive) and the GI50 (SNB-78) was > 100 µM (inactive).
In the case of `CN1CCN(CCCCN2c3ccccc3Sc3ccc(C(=O)c4ccccc4)cc32)CC1`, the GI50 (MDA-N) is reported as 1.55 µM (inactive).
`Cc1ccc(C(=O)C#Cc2cn(C3CC(O)C(CO)O3)c(=O)[nH]c2=O)cc1` (stereo unspecified) was tested, and the GI50 (MDA-N) was > 100 µM (inactive).
For `CC(C)(C)c1ccc2c(c1)C(O)(c1ccccc1)c1cc(C(C)(C)C)ccc1C2(O)C(F)(F)F` (stereo unspecified), the GI50 (HOP-18) was 2.2 µM (inactive), the GI50 (XF498) was 1.53 µM (inactive) and the GI50 (DMS-114) was 2.04 µM (inactive). For the same molecule, the GI50 (M19-MEL) was 1.85 µM (inactive), the GI50 (DMS-273) was 1.74 µM (inactive) and the GI50 (LXFL 529) was 1.97 µM (inactive).
In the case of `COc1cc2c(c(OC)c1OC)-c1ccc(OC)c(=O)cc1C(NC(=O)c1ccc(N=[N+]=[N-])cc1)CC2` (stereo unspecified), the GI50 (HOP-18) is reported as > 84.9 µM (inactive), the GI50 (DMS-114) is reported as 0.0257 µM (active) and the GI50 (M19-MEL) is reported as 0.0581 µM (active). For the same molecule, the GI50 (SNB-78) was 0.03 µM (active), the GI50 (DMS-273) was 0.0244 µM (active) and the GI50 (LXFL 529) was 0.0372 µM (active).
In the case of `COc1ccc2oc(OC)c(CC=C(C)C)c(=O)c2c1C`, the GI50 (MDA-N) is reported as > 100 µM (inactive).
With `Cc1nn(C(=O)c2ccncc2)c2c1C(c1ccccc1)SC(=N)N2` (stereo unspecified) the GI50 (MDA-N) was > 10 µM (inactive).
`C/C=C1/CN2CCC34c5ccccc5N(C)C23C2CC1C4(C(=O)OC)C(O)O2` (stereo unspecified) was tested, and the GI50 (MDA-N) was > 100 µM (inactive).
For `CC1(C)C[C@H]2[C@H](O)C(CO)=C3C(=O)[C@@H](O)[C@]3(C)[C@H]2C1`, the GI50 (MDA-N) was 80.2 µM (inactive).
With `O=C1/C(=C\c2ccc(-c3ccc(Cl)cc3Cl)o2)SC2NC(COc3ccc(Cl)cc3)=NN12` (stereo unspecified) the GI50 (MDA-N) was 44.2 µM (inactive).
`CC12CCCC3(CC(=O)C(C)(C)C3C(=O)C1)C2` (stereo unspecified) was tested, and the GI50 (MDA-N) was > 100 µM (inactive).
In the case of `CC(=O)Nc1nc(NC(C)=O)c2nc(CO)[nH]c2n1`, the GI50 (MDA-N) is reported as > 100 µM (inactive).
In the case of `Cc1cccc(C)c1Nc1nc(C)c(C(=O)CC(=O)C(=O)Nc2c(C(C)C)cccc2C(C)C)s1`, the GI50 (MDA-N) is reported as > 100 µM (inactive).
For `N#CC(C#N)=Cn1c(=S)[nH]c2ccc([N+](=O)[O-])cc21`, the GI50 (MDA-N) was > 100 µM (inactive).
In the case of `CNN1C(=O)c2c(C)c(C)c(C#N)c(N)c2C1=O`, the GI50 (MDA-N) is reported as > 100 µM (inactive).
`CCOc1ccc(Nc2nc(N)nc(N)c2N=O)cc1` was tested, and the GI50 (MDA-N) was 62.1 µM (inactive).
With `CCOC(=O)c1nc2ccc(C(F)(F)F)cc2[nH]c1=O` the GI50 (MDA-N) was > 100 µM (inactive).
In the case of `COc1ccc(/C=C/C(=O)c2cc(OC)cc(OC)c2)cc1`, the GI50 (MDA-N) is reported as 1.94 µM (inactive).
`CC(=O)Oc1ccc2cc(-c3ccccc3OC(C)=O)c(=O)oc2c1` was tested, and the GI50 (MDA-N) was 49.5 µM (inactive).
`CC(=O)OC1CCn2nnc(CO[Si](C)(C)C(C)(C)C)c21` (stereo unspecified) was tested, and the GI50 (HOP-18) was > 100 µM (inactive), the GI50 (XF498) was > 100 µM (inactive) and the GI50 (DMS-114) was > 100 µM (inactive). For the same molecule, the GI50 (DMS-273) was > 100 µM (inactive) and the GI50 (LXFL 529) was > 100 µM (inactive).
For `CCCCSC1=N/C(=C\c2ccco2)C(Cl)=N1`, the GI50 (MDA-N) was > 100 µM (inactive).
In the case of `O=C(O)C1CCCCC1c1c2ccc(=O)c(O)c-2oc2c(O)c(O)ccc12` (stereo unspecified), the GI50 (MDA-N) is reported as 17.2 µM (inactive).
`CN(/N=C/c1ccccn1)C1=NCCN1` was tested, and the GI50 (MDA-N) was > 100 µM (inactive).
`CCOc1ccc(/N=N/C2C(=O)N(C(=O)CC(=O)Nc3ccccc3)N=C2C)cc1` (stereo unspecified) was tested, and the GI50 (MDA-N) was 2.68 µM (inactive).
In the case of `c1ccc2c(c1)Nc1cccc3c1c-2nc1cc2ccccc2cc13`, the GI50 (MDA-N) is reported as 1.45 µM (inactive).
`CCOC(=O)C(NC(=O)c1ccccc1)(Nc1ccc(S(=O)(=O)Nc2ncccn2)cc1)C(F)(F)F` (stereo unspecified) was tested, and the GI50 (MDA-N) was > 100 µM (inactive).
`CCOC(=O)c1nc(C)oc1C(F)(F)F` was tested, and the GI50 (XF498) was > 100 µM (inactive), the GI50 (DMS-114) was > 100 µM (inactive) and the GI50 (M19-MEL) was > 100 µM (inactive). The GI50 (SNB-78) was > 100 µM (inactive) and the GI50 (LXFL 529) was > 100 µM (inactive).
For `CN(C)CCn1c(=O)c2ccc(NCCN3CCNCC3)c3c(=O)c4ccccc4n(c1=O)c23`, the GI50 (MDA-N) was 3.68 µM (inactive).
For `CC(C)/C=C1\CCC(CN(C)C)C1=O` (stereo unspecified), the GI50 (HOP-18) was 3.36 µM (inactive), the GI50 (MDA-N) was 2.92 µM (inactive) and the GI50 (XF498) was 1.91 µM (inactive). The GI50 (DMS-114) was 3.19 µM (inactive), the GI50 (M19-MEL) was 9.27 µM (inactive) and the GI50 (SNB-78) was 4.51 µM (inactive). The GI50 (LXFL 529) was 1.5 µM (inactive).
In the case of `Clc1nc(Nc2nc3ccccc3[nH]2)nc(Cl)c1-c1ccccc1`, the GI50 (MDA-N) is reported as 10.3 µM (inactive).
For `COC1=C(Cl)C(=O)c2c(O)ccc(O)c2C1=O`, the GI50 (MDA-N) was 2.2 µM (inactive).
In the case of `O=C(Nc1ccn(CCI)c(=O)n1)c1ccccc1`, the GI50 (HOP-18) is reported as > 100 µM (inactive), the GI50 (DMS-114) is reported as > 100 µM (inactive) and the GI50 (M19-MEL) is reported as > 100 µM (inactive). For the same molecule, the GI50 (SNB-78) was > 100 µM (inactive), the GI50 (DMS-273) was > 100 µM (inactive) and the GI50 (LXFL 529) was > 100 µM (inactive).
For `COc1cc(OC)c(OC)cc1/C=C/c1ccc2ccccc2n1`, the GI50 (MDA-N) was 8.07 µM (inactive).
`Cc1c2c(Cl)c3c(c(Cl)c2c(C)c2c(Cl)c4c(c(Cl)c12)C(c1ccccc1)(c1ccccc1)C4(c1ccccc1)c1ccccc1)C(c1ccccc1)(c1ccccc1)C3(c1ccccc1)c1ccccc1` was tested, and the GI50 (MDA-N) was > 100 µM (inactive).
For `CCNCCNc1c2ccccc2nc2ccccc12`, the GI50 (MDA-N) was 1.28 µM (inactive).
In the case of `COc1ccc2c(c1OC)C(=O)N/C2=C\c1c(CCN(C)C)cc2c(c1OC)OCO2`, the GI50 (MDA-N) is reported as 25.6 µM (inactive).
For `O=C(NC12CC3CC(CC(C3)C1)C2)C(=O)c1c[nH]c2ccc(Br)cc12`, the GI50 (HOP-18) was 19.1 µM (inactive), the GI50 (DMS-114) was 65.9 µM (inactive) and the GI50 (SNB-78) was 35.7 µM (inactive). The GI50 (DMS-273) was 4.54 µM (inactive) and the GI50 (LXFL 529) was 15.5 µM (inactive).
